According to US11419829B2, “Use of cannabidiol in combination with 5-HT2B receptor agonists or amphetamines in the treatment of epilepsy” (GW Research Limited, priority 2017, dated 2022):
Where a name gives a salt, the structure may show the parent alone.

Experiments:
[1] = Plasma concentrations in human clinical trials in epilepsy; assay type: in vivo
human 5-HT2B receptor [2] = target: T1, human 5-HT2B receptor (Homo sapiens, UniProt P41595); assay: 5-HT2B agonist effect, IP1 production (HTRF) in transfected CHO cells; assay type: cell-based; conditions: IP1 production vs 1 μM 5-HT control
T1 construct: expressed in transfected cells; host or cells: CHO cells
Protocol: (§1) Evaluation of the activity of CBD and 7-OH-CBD at the human 5-HT2B receptor was undertaken in transfected CHO cells. Such activity as either an agonist or antagonist was determined by measuring their effects IP1 production using the HTRF detection method.
(§2) Cells were suspended in a buffer containing 10 mM Hepes/NaOH (pH 7.4), 4.2 mM KCl, 146 mM NaCl, 1 mM CaCl2), 0.5 mM MgCl2, 5.5 mM glucose and 50 mM LiCl, then distributed in microplates at a density of 4.104 cells/well and incubated for 30 min at 37° C. in the presence of buffer (basal control), test compound or reference agonist.
For stimulated control measurement, separate assay wells contain 1 μM 5-HT. Following incubation, the cells are lysed and the fluorescence acceptor (D2-labeled IP1) and fluorescence donor (anti-IP1 antibody labelled with europium cryptate) are added.
After 60 min at room temperature, the fluorescence transfer is measured at A ex=337 nm and A em=620 and 665 nm using a microplate reader (Rubystar, BMG).
(§3) The IP1 concentration is determined by dividing the signal measured at 665 nm by that measured at 620 nm (ratio).
The results are expressed as a percent of the control response to 1 μM 5-HT. The standard reference agonist is 5-HT, which is tested in each experiment at several concentrations to generate a concentration-response curve from which its EC50 value is calculated.

human 5-HT2B receptor [3] = target: T1, human 5-HT2B receptor; assay: 5-HT2B antagonist effect, IP1 production (HTRF) in transfected CHO cells; assay type: cell-based; conditions: antagonism of 30 nM 5-HT
Protocol: as §1
as §2, with “preincubated” for “incubated”, “5” for “30”, “room temperature” for “37° C.”, “antagonist.” for “agonist.”
Thereafter, the reference agonist 5-HT is added at a final concentration of 30 nM. […] Following 30 min incubation at 37° C., the cells are lysed and the fluorescence acceptor (D2-labeled IP1) and fluorescence donor (anti-IP1 antibody labelled with europium cryptate) are added.
After 60 min at room temperature, the fluorescence transfer is measured at ex=337 nm and λ em=620 and λ 665 nm using a microplate reader (Rubystar, BMG).
as §3
The results are expressed as a percent inhibition of the control response to 30 nM 5-HT. […]

[4] = tested on: MES-induced tonic seizures; assay: Maximal electroshock seizure (MES) test in mice with isobolographic/CalcuSyn DDI analysis; assay type: in vivo, mouse; conditions: for Dose Reduction Index (DRI): in CBD/FEN combination vs drug alone; for doses with statistically significant (p<0.05) anticonvulsant effect vs vehicle: Experiment A, single drug; for doses with statistically significant (p<0.05) anticonvulsant effect vs vehicle / effect on incidence of MES vs vehicle, drug alone: i.p.; for doses with statistically significant (p<0.05) anticonvulsant effect vs vehicle / ED50: mouse MES; for effect on incidence of MES vs vehicle, drug alone: Experiment B, low doses alone; for ED50: median-effect curves, drug alone, read-out: potency (Dm or ED50)
Protocol: The study was performed in two phases. […] Secondly, (Experiment B), drug-drug interactions (DDI) and anticonvulsant activities for CBD/FEN in combination were determined.
Experiment A was performed using 160 male, C57Bl6 mice, weighing between 20.1-30.1 g, and Experiment B was performed using 126 male, C57Bl6 mice, weighing between 19.2-26.1 g, purchased from a licensed breeder (Charles River, UK).
The following drugs were used in this study: Purified botanical CBD provided by GW Research Ltd., fenfluramine hydrochloride (FEN) purchased from Sigma Merck. The control vehicle used was 1:1:18 (5% ethanol, 5% Kolliphor EL, 90% saline). CBD and FEN were dissolved in the same control vehicle for comparison.
Animals were dosed (10 ml/kg) i.p. at 60 min for CBD and 30 min for FENS pre-treatment times, prior to MES and before plasma and brain sampling immediately post-MES test.
Here, doses were selected based on known ED50 and NOAELs for all the drugs and were: CBD-BOT [10, 30, 50, 70 and 100 mg/kg] and FEN [1, 2, 3, 5 and 10 mg/kg]. The number of animals in each of these groups were 10 (n=10), and 160 in total.
For Experiment B, in addition to the vehicle group, three dose groups were used for each of the treatments. Here, doses were selected based on analysis of the data obtained from Experiment A according to methods described for determination of isobolographic interactions. Doses as CBD/FEN combination were [20.9/2.5, 13.6/3.9 and 28.3/1.2 mg/kg]. The number of animals in each of these groups were 10 (n=10), and with individual CBD, FEN and VPA doses n=190 in total.
Electroconvulsions were produced by application of a fixed current intensity of 30 mA (0.2 sec duration) delivered via corneal electrodes. […] Mice were individually assessed for production of seizure determined by presence or absence of tonic hindlimb extension following current application.
Data were collected by an observer unaware of the treatment received by each animal.
The protective activities of CBD and FEN administered alone were evaluated and expressed as effective doses (ED50; mg/kg based on dose administered) and effective exposures (EE50; μM based on bioanalysis of brain samples) where EX50 is defined as the dose or brain exposure required to protect 50% of mice from MES-induced tonic seizures. CBD/FEN combinations were evaluated at 3 fixed ratios (1:3, 1:1 and 3:1) based on an EE50 derived from an assumption of linearly additive effects of EEs of the two drugs in combination.
For the three fixed-ratio CBD/FEN combinations (1:3, 1:1 and 3:1), calculations were based on Loewe's equation of additivity as follows; x/EE50(CBD)+y/EE50(FEN)=1; where x=the exposure of CBD and y=the exposure at which […], when co-administered with FEN, should theoretically exert the desired/additive 50% effect. Subsequently, CBD and FEN doses corresponding to 50% of respective EE50 were used for the CBD/FEN 1:1 ratio. Similarly, dose proportions were calculated for the CBD/FEN 1:3 and 3:1 ratios based on theoretical additive EE50.
The percentage protection of animals against MES-induced seizure were plotted against doses of AED alone (CBD or FEN) from Experiment A as log-probit linear regression analysis to derive ED50 and EE50.
Loewe's equation of additivity was used to determine fractions of EE50 in the three ratios 1:3, 1:1 and 3:1 for each of the combinations CBD/FEN. Graphs were plotted in Prism, for CBD and FEN to determine relationships versus these exposures to determine actual doses for the combination study (Experiment B).
DDI using these three-fixed dose-ratios of CBD/FEN was assessed using CalcuSyn v2.11 (Biosoft).

[5] = target: T2, human recombinant 5-HT2C receptor (Homo sapiens, UniProt P28335); assay: Inhibition of specific binding at human recombinant 5-HT2C receptors (FIG. 2B)
T2 sequence (P28335 33-458): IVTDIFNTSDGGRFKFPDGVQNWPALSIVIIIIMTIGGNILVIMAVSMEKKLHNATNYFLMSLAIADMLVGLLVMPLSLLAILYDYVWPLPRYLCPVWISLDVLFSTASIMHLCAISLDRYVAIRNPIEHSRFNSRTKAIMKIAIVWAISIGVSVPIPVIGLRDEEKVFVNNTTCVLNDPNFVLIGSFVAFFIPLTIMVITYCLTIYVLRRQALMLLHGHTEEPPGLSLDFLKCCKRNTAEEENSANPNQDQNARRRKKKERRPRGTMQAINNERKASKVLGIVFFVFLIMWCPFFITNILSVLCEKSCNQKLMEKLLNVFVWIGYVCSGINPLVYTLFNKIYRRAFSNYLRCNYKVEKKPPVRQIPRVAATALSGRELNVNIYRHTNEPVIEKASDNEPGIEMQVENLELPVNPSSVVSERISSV

[6] = tested on: seizure frequency in patients with Dravet syndrome; conditions: low dose between 0.25 and 1.0 mg/kg/day; cited from earlier work

T1 sequence (P41595 whole entry): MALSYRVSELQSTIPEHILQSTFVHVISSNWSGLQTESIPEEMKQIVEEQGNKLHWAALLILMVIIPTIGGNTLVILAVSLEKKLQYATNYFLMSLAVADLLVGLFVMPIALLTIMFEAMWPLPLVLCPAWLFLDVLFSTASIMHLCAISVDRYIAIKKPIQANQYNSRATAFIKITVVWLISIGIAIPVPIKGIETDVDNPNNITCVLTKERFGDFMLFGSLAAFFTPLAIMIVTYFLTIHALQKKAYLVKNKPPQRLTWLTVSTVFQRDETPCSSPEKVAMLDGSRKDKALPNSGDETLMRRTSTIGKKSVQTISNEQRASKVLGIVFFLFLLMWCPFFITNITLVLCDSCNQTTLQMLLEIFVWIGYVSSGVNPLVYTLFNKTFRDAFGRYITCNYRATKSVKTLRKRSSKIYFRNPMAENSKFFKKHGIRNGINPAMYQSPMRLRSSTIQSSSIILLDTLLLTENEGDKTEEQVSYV

Compound | 7-OH-CBD concentration relative to that achieved by CBD ([1]; clinical use of CBD) | agonist activity at 5-HT2B receptors (human 5-HT2B receptor [2]) | Kb (human 5-HT2B receptor [3]) | Drug alone dose for the given effect ([4]; Effect 40%) | Dose Reduction Index (DRI) ([4]; Effect 40%) | Drug alone dose for the given effect ([4]; Effect 80%) | Dose Reduction Index (DRI) ([4]; Effect 80%) | Drug alone dose for the given effect ([4]; Effect 90%) | Dose Reduction Index (DRI) ([4]; Effect 90%) | doses with statistically significant (p<0.05) anticonvulsant effect vs vehicle [4] | effect on incidence of MES vs vehicle, drug alone [4] | ED50 [4] | plasma concentration reached ([1]; human clinical trials in epilepsy, plasma) | molar plasma concentration ([1]; human clinical use of CBD, plasma) | interaction with the 5-HT2C receptor [5] | effect on seizure frequency [6]
C=C(C)[C@@H]1CCC(CO)=C[C@H]1c1c(O)cc(CCCCC)cc1O [7-OH-CBD, 7-hydroxy cannabidiol] | ~50% | Neither CBD nor 7-OH-CBD possess agonist activity | 690 nM | – | – | – | – | – | – | – | – | – | – | – | – | –
C=C(C)[C@@H]1CCC(C)=C[C@H]1c1c(O)cc(CCCCC)cc1O [CBD, cannabidiol] | – | Neither CBD nor 7-OH-CBD possess agonist activity | 3700 nM | 28.46 mg/kg | 1.006 fold | 56.55 mg/kg | 2.704 fold | 77.15 mg/kg | 5.690 fold | 50 to 100 mg/kg | no significant effect | 33.2 mg/kg | up to 330 ng/mL | ~1 µM | does not act upon the 5-HT2C receptors | –
CCNC(C)Cc1cccc(C(F)(F)F)c1 (stereo not drawn) [FEN, fenfluramine hydrochloride, reference compound] | – | – | – | 4.19 mg/kg | 3.639 fold | 8.26 mg/kg | 3.306 fold | 11.24 mg/kg | 2.921 fold | 10 mg/kg | no significant effect | 4.9 mg/kg | – | – | – | reduce seizure frequency
